{"source": "paper PMC12841663", "about": "“Antiprotozoal Potential of Cultivated Geranium macrorrhizum Against Giardia duodenalis, Trichomonas gallinae and Leishmania infantum” (International Journal of Molecular Sciences, 2026)", "key": {"[1]": {"experiment": "Cytotoxicity of pure compounds on Vero cells (MTT)", "type": "cell-based", "conditions": "African green monkey", "protocol": "African green monkey kidney cells (Vero cells) were maintained in Dulbecco’s modified Eagle’s minimal essential medium (DMEM) (Thermo Fisher Scientific, Waltham, MA, USA) supplemented with 10% FBS and 1% Pen-Strep at 37 °C under a humidified atmosphere of 5% CO2/95% air.\nCells seeded in 96-well flat-bottom microplates with 100 μL medium per well (initial densities 10^4 cells per well) were exposed for 48 h to serial dilutions (100, 75, 50, 25, 10 and 1 µg/mL) of the tested compounds in DMSO (<1% final concentration). Cell viability was analyzed by the MTT colorimetric assay method, and the purple-colored formazan precipitate was dissolved with 100 μL of DMSO [23].\nData was analyzed using STATGRAPHICS Centurion XIX (https://www.statgraphics.com) (Statgraphics Technologies, Inc., The Plains, VA, USA). The mammalian cells and trophozoites viability were tested with each compound in a dose–response experiment to calculate their relative potency (CC50 or IC50 value, respectively). IC50 (μg/mL) expresses the dose of EOs, extracts or pure compounds needed to produce 50% mortality of trophozoites, while CC50 (μg/mL) expresses the dose of compounds necessary to produce 50% mortality of Vero cells."}, "DH82 canine macrophages": {"tested_on": "DH82 canine macrophages", "experiment": "Cytotoxicity of germacrone on DH82 macrophages (MTT)", "type": "cell-based", "conditions": "at concentrations of 50 and 100 μg/mL", "protocol": "(§1) Canine DH82 (ATCC®-CRL-10389TM) macrophages were maintained in Dulbecco’s modified Eagle’s medium (DMEM) (Thermo Fisher Scientific, Waltham, MA, USA) supplemented with 10% heat-inactivated FBS (Thermo Fisher Scientific, Waltham, MA, USA), and Pen-Strep at 37 °C in 5% CO2.\n(§2) DH82 canine macrophages (5 × 10^4 per well) were seeded in 96-well plates in DMEM and kept overnight at 37 °C and 5% CO2. After washing with PBS, germacrone was added in varying concentrations (10, 50 and 100 μg/mL). After 48 h of treatment, cell viability was determined by the MTT method using a spectrophotometer (Multiskan EX, Thermo Electron Corporation, Vantaa, Finland) at 570 nm. The results were expressed as the cytotoxic concentration of 50% of the cell population (CC50). Amphotericin B (Gibco, Thermo Fisher Scientific, Grand Island, NY, USA) at 1 μg/mL was used as the reference drug. The assays were performed in two independent experiments, each in quadruplicate."}, "[2]": {"experiment": "Cytotoxicity of germacrone on DH82 macrophages (MTT)", "type": "cell-based, canine", "conditions": "dog, DH82 macrophages; 48 h treatment; MTT; R^2 98.4", "protocol": "as §1, §2"}, "[3]": {"tested_on": "G. duodenalis trophozoites", "experiment": "Anti-Giardia activity assay (MTT viability)", "type": "cell-based", "conditions": "pure compounds", "protocol": "Anti-Giardia (AG) activity assays were conducted on G. duodenalis trophozoites from the ATCC® 30957 strain (assemblage A), using flat-bottom microwell plates in quadruplicate. […] Incubation was carried out for 24 h at 37 °C. EOs and pure compounds were solved in DMSO (Sigma, Madrid, Spain) (<1% final concentration). […] Trophozoites/promastigotes viability was assessed using the modified MTT colorimetric assay, as described previously in the literature, with results further validated by microscopic examination. The plate was analyzed in a spectrophotometer at a wavelength of 570 nm. The percentage of antiparasitic activity was calculated as growth inhibition, using the following formula: % AT = 100 - [(Ap - Ab) ÷ (Ac - Ab)] × 100, where Ap is the absorbance of the tested product, Ab the absorbance of the blank and Ac the absorbance of the control wells (culture without treatment). […] Metronidazole (Acros Organics, Madrid, Spain) served as a reference compound for anti-Giardia activity and Anti-Trichomonas activity and amphotericin B for anti-Leishmania activity. Data was analyzed using STATGRAPHICS Centurion XIX ([…].com) (Statgraphics Technologies, Inc., The Plains, VA, USA). The mammalian cells and trophozoites viability were tested with each compound in a dose-response experiment to calculate their relative potency (CC50 or IC50 value, respectively)."}, "T. gallinae trophozoites": {"tested_on": "T. gallinae trophozoites", "experiment": "Anti-Trichomonas activity assay (MTT viability)", "type": "cell-based", "conditions": "pure compounds", "protocol": "The anti-Trichomonas (AT) activity assay utilized T. gallinae trophozoites from an isolate obtained from a wood pigeon by Dr. […] EOs and pure compounds were solved in DMSO (Sigma, Madrid, Spain) (<1% final concentration). […] Trophozoites/promastigotes viability was assessed using the modified MTT colorimetric assay, as described previously in the literature, with results further validated by microscopic examination. The plate was analyzed in a spectrophotometer at a wavelength of 570 nm. The percentage of antiparasitic activity was calculated as growth inhibition, using the following formula: % AT = 100 - [(Ap - Ab) ÷ (Ac - Ab)] × 100, where Ap is the absorbance of the tested product, Ab the absorbance of the blank and Ac the absorbance of the control wells (culture without treatment). […] Metronidazole (Acros Organics, Madrid, Spain) served as a reference compound for anti-Giardia activity and Anti-Trichomonas activity and amphotericin B for anti-Leishmania activity. Data was analyzed using STATGRAPHICS Centurion XIX ([…].com) (Statgraphics Technologies, Inc., The Plains, VA, USA). The mammalian cells and trophozoites viability were tested with each compound in a dose-response experiment to calculate their relative potency (CC50 or IC50 value, respectively)."}}, "data": [{"compound": "CC(C)=C1C/C=C(\\C)CC/C=C(\\C)CC1=O", "note": "[Compound 2, germacrone]", "values": [{"measurement": "CC50 at 48 h", "setting": "[1]", "result": "~100", "unit": "µg/mL"}, {"measurement": "effect on canine macrophages", "setting": "DH82 canine macrophages", "result": "lethal"}, {"measurement": "CC50 at 48 h", "setting": "[2]", "result": 12.9, "unit": "µg/mL"}, {"measurement": "IC50", "setting": "[3]", "result": 55.2, "unit": "µg/mL"}, {"measurement": "IC50", "setting": "T. gallinae trophozoites", "result": 45.8, "unit": "µg/mL"}]}]}
